# Reference: patent publication US20260137706A1, “METHODS OF TREATING INFLAMMATORY DISEASES” (INTERLINE THERAPEUTICS, INC., priority 2023, published 2026)
# Assays:
# [1] = target: T1, GST-RIPK2 fusion protein (human RIPK2, amino acids 1-310) (Homo sapiens, UniProt O43353); experiment: RIPK2 binding competition assay (TR-FRET, Tracer 199 displacement); conditions: 10 nM Tracer 199, 1 nM GST-RIPK2, read-out: RIPK2 IC50
# T1 construct: made in house; host or cells: baculovirus infected Sf9 cells
# Outline: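 IC50 derived from the TR-FRET emission ratio (665/620 nm, 337 nm excitation), normalized with no-inhibitor and no-enzyme controls. Incubation 45 min at 22 °C, pH 7.5 Tris buffer, with final 10 nM tracer, 1 nM Sf9-expressed GST-RIPK2 fragment (aa 1-310) and 0.5 nM Tb-labelled anti-GST.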
# [2] = target: T2, binding of His-XIAP(BIR2)-avi fusion protein to GST-RIPK2 fusion protein (RIPK2/XIAP) (Homo sapiens, UniProt O43353); experiment: RIPK2-XIAP binding competition PPI assay (TR-FRET); conditions: RIPK2/XIAP binding competition PPI assay; for Emax: Amax, read-out: PPI Amax bin; for IC50: read-out: PPI IC50 bin
# T2 construct: made in house; host or cells: baculovirus infected Sf9 cells
# Outline: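 Compounds (in DMSO, 100-fold stock) incubated 120 min at 23 °C with 1 nM GST-RIPK2 (aa 1-310) and 25 nM His-XIAP(BIR2 aa 152-231)-avi, plus anti-His-XL665 and anti-GST-Tb, in pH 7.5 Tris buffer. Read-out: 665/520 nm emission ratio. Normalized to no-inhibitor (0%) and 50 nM GSK583 (−100%); Amax binned A–D.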
# [3] = test system: NF-κB pathway (SEAP) in THP1-Dual cells; experiment: THP-1 Dual cell SEAP assay (L18-MDP stimulated); format: cell-based; conditions: Homo sapiens, THP1-Dual, read-out: NF-κB THP1 IC50 bin
# Outline: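 IC50 values derive from non-linear regression of % inhibition, calculated against DMSO/L18-MDP-treated wells after media-only subtraction. NF-κB SEAP activity was read at OD 620-655 nm (QUANTI-Blue, 2 h, 37 °C) from supernatants of THP1-Dual cells. Cells had been compound-treated 30 min before overnight (20-24 h) stimulation with 10 ng/mL final L18-MDP.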
# T2 sequence (O43353 1-310 limits assumed): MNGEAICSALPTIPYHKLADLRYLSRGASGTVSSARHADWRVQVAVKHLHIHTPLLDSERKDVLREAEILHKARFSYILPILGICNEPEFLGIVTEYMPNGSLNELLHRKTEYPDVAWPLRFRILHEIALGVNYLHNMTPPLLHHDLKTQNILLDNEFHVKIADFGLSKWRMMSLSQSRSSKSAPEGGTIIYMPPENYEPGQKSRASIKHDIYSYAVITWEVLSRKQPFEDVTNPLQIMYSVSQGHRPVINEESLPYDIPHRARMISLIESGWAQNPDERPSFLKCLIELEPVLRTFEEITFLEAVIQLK
# T1 sequence (O43353 1-310): as the sequence (O43353 1-310 limits assumed) above
Structure (SMILES),IC50 [1] [nM],Emax [2] [%],IC50 [2] [nM],IC50 [3] [nM]
"CC(C)(C)S(=O)(=O)c1cn2c(-c3cnc4c(c3)C3(CC3)CN4)cnc2cc1OCCO [Example 237, 2-((6-(tert-butylsulfonyl)-3-(1′,2′-dihydrospiro [cyclopropane-1,3′-pyrrolo[2,3-b]pyridin] -5′-yl)imidazo[1,2-a]pyridin-7-yl)oxy)ethan-1-ol]",> 20,< 30,> 20,> 1000
"Cc1cc2cc(-c3cnc4cc(OCCO)c(S(=O)(=O)C(C)(C)C)cn34)cnc2[nH]1 [Example 232, 2-((6-(tert-butylsulfonyl)-3-(2-methyl-1H-pyrrolo[2,3-b]pyridin-5-yl)imidazo[1,2-a]pyridin-7-yl)oxy)ethan-1-ol]",2.5 to 20,30 to 55,< 1,> 1000
"COc1cc2ncc(-c3cnc4nc(N)ccc4c3)n2cc1S(=O)(=O)C(C)(C)C [Example 91, 6-(6-(tert-butylsulfonyl)-7-methoxyimidazo[1,2-a]pyridin-3-yl)-1,8-naphthyridin-2-amine]",> 20,30 to 55,> 20,> 1000
"CC(C)(C)S(=O)(=O)c1cc2c(-c3cc4cc[nH]c4nc3F)cnn2cc1OCCO [Example 215, 2-((5-(tert-butylsulfonyl)-3-(6-fluoro-1H-pyrrolo[2,3-b]pyridin-5-yl)pyrazolo[1,5-a]pyridin-6-yl)oxy)ethan-1-ol]",< 1,> 80,< 1,< 50
"CC(C)(C)S(=O)(=O)c1cn2c(-c3ccc4nccn4c3)cnc2cc1OCCO [Example 208, 2-((6-(tert-butylsulfonyl)-[3,6′-biimidazo[1,2-a]pyridin] -7-yl)oxy)ethan-1-ol]",2.5 to 20,< 30,> 20,> 1000
"CCS(=O)(=O)Nc1cc(-c2cnc3cc(OC)c(C(=O)N4CCC(O)CC4)cn23)cc(F)c1OC [Example 192, N-(3-fluoro-5-(6-(4-hydroxypiperidine-1-carbonyl)-7-methoxyimidazo[1,2-a]pyridin-3-yl)-2-methoxyphenyl) ethanesulfonamide]",2.5 to 20,> 80,2.5 to 20,> 1000
"CC(C)(C)S(=O)(=O)c1cn2c(-c3ccc4[nH]ccc4n3)cnc2cc1OCCO [Example 278, 2-((6-(tert-butylsulfonyl)-3-(1H-pyrrolo[3,2-b]pyridin-5-yl)imidazo[1,2-a]pyridin-7-yl)oxy)ethan-1-ol]",> 20,30 to 55,2.5 to 20,> 1000
"COc1cc2ncc(-c3ccc4ncoc4c3)n2cc1S(=O)(=O)C(C)(C)C [Example 110, 6-(6-(tert-butylsulfonyl)-7-methoxyimidazo[1,2-a]pyridin-3-yl)benzo[d]oxazole]",> 20,< 30,> 20,> 1000
"COc1cc2ncc(-c3cc(F)nc(NCCCO)c3)n2cc1C(F)(F)F [Example 1, 3-((6-Fluoro-4-(7-methoxy-6-(trifluoromethyl)imidazo[1,2-a]pyridin-3-yl)pyridin-2-yl)amino)propan-1-ol]",2.5 to 20,< 30,> 20,50 to 250
"CC(C)(C)S(=O)(=O)c1cn2c(-c3cc(F)c(N)nc3F)cnc2cc1OCCCO [Example 17, 3-((3-(6-amino-2,5-difluoropyridin-3-yl)-6-(tert-butylsulfonyl)imidazo[1,2-a]pyridin-7-yl)oxy)propan-1-ol]",1 to 2.5,> 80,1 to 2.5,50 to 250
"COc1cc2ncc(-c3cccc(NS(=O)(=O)C4CCOC4)c3)n2cc1S(=O)(=O)C(C)(C)C (centres unmarked) [Example 148, N-(3-(6-(tert-butylsulfonyl)-7-methoxyimidazo[1,2-a]pyridin-3-yl)phenyl)tetrahydrofuran-3-sulfonamide]",2.5 to 20,> 80,2.5 to 20,> 1000
"COc1cc2ncc(-c3cc(F)c(OC)c(NS(=O)(=O)C4COC4)c3)n2cc1S(=O)(=O)C(C)(C)C [Example 142, N-(5-(6-(tert-butylsulfonyl)-7-methoxyimidazo[1,2-a]pyridin-3-yl)-3-fluoro-2-methoxyphenyl)oxetane-3-sulfonamide]",1 to 2.5,> 80,1 to 2.5,250 to 1000
"COc1cc2ncc(-c3cc(F)c(OC)c(NS(=O)(=O)C4(CO)CC4)c3)n2cc1S(=O)(=O)C(C)(C)C [Example 180, N-(5-(6-(tert-butylsulfonyl)-7-methoxyimidazo[1,2-a]pyridin-3-yl)-3-fluoro-2-methoxyphenyl)-1-(hydroxymethyl)cyclopropane-1-sulfonamide]",1 to 2.5,> 80,< 1,50 to 250
"CC(C)(C)S(=O)(=O)c1cn2c(-c3cc(F)c(N)nc3F)cnc2cc1OCCN1CC(O)C1 [Example 41, 1-(2-((3-(6-amino-2,5-difluoropyridin-3-yl)-6-(tert-butylsulfonyl)imidazo[1,2-a]pyridin-7-yl)oxy)ethyl)azetidin-3-ol]",2.5 to 20,> 80,2.5 to 20,> 1000
"CC(C)(C)S(=O)(=O)c1cn2c(-c3cc(F)c(N)nc3F)cnc2cc1OC[C@H]1C[C@@H](O)C1 [Example 196, (1s,3s)-3-(((3-(6-amino-2,5-difluoropyridin-3-yl)-6-(tert-butylsulfonyl)imidazo [1,2-a]pyridin-7-yl)oxy)methyl) cyclobutan-1-ol]",1 to 2.5,> 80,1 to 2.5,50 to 250
"C=CS(=O)(=O)Nc1cc(-c2cnc3cc(OC)c(S(=O)(=O)C(C)(C)C)cn23)cc(OC)c1OC [Example 144, N-(5-(6-(tert-butylsulfonyl)-7-methoxyimidazo[1,2-a]pyridin-3-yl)-2,3-dimethoxyphenyl)ethenesulfonamide]",1 to 2.5,> 80,< 1,< 50
"COc1cc2ncc(-c3cc(F)c(N)nc3F)n2cc1S(=O)(=O)N1CCN(C)CC1 [Example 165, 3,6-difluoro-5-(7-methoxy-6-((4-methylpiperazin-1-yl)sulfonyl)imidazo[1,2-a]pyridin-3-yl)pyridin-2-amine]",> 20,> 80,> 20,> 1000
"CC(C)(C)S(=O)(=O)c1cn2c(-c3cc(F)c(N)nc3F)cnc2cc1OCC(F)(F)CN [Example 202, 5-(7-(3-amino-2,2-difluoropropoxy)-6-(tert-butylsulfonyl)imidazo [1,2-a]pyridin-3-yl)-3,6-difluoropyridin-2-amine]",1 to 2.5,> 80,1 to 2.5,50 to 250
"CCCS(=O)(=O)Nc1cc(-c2cnc3cc(OC)c(S(=O)(=O)C(C)(C)CO)cn23)cc(F)c1OC [Example 126, N-(3-fluoro-5-(6-((1-hydroxy-2-methylpropan-2-yl)sulfonyl)-7-methoxyimidazo[1,2-a]pyridin-3-yl)-2-methoxyphenyl)propane-1-sulfonamide]",< 1,> 80,< 1,< 50
"COc1cc2ncc(-c3cc(NS(=O)(=O)C4(CO)CC4)c(OC)c(OC)c3)n2cc1S(=O)(=O)C(C)(C)C [Example 178, N-(5-(6-(tert-butylsulfonyl)-7-methoxyimidazo[1,2-a]pyridin-3-yl)-2,3-dimethoxyphenyl)-1-(hydroxymethyl)cyclopropane-1-sulfonamide]",< 1,> 80,< 1,< 50
"COc1cc2ncc(-c3cc(F)c(OC)c(NS(=O)(=O)CC4CC4)c3)n2cc1S(=O)(=O)C(C)(C)C [Example 159, N-(5-(6-(tert-butylsulfonyl)-7-methoxyimidazo[1,2-a]pyridin-3-yl)-3-fluoro-2-methoxyphenyl)-1-cyclopropylmethanesulfonamide]",< 1,> 80,< 1,< 50
"COc1cc2ncc(-c3cc(F)c(N)nc3F)n2cc1S(=O)(=O)C(C)(C)c1nc(C)no1 [Example 64, 3,6-difluoro-5-(7-methoxy-6-((2-(3-methyl-1,2,4-oxadiazol-5-yl)propan-2-yl)sulfonyl)imidazo[1,2-a]pyridin-3-yl)pyridin-2-amine]",> 20,> 80,> 20,> 1000
"COc1cc2ncc(-c3cc(F)c(N)nc3F)n2cc1S(=O)(=O)c1ccnn1C [Example 77, 3,6-difluoro-5-(7-methoxy-6-((1-methyl-1H-pyrazol-5-yl)sulfonyl)imidazo[1,2-a]pyridin-3-yl)pyridin-2-amine]",> 20,> 80,> 20,> 1000
